Laboratory results as given in patent US20040225172A1, “Use of ionic liquids to separate olefins, diolefins and aromatics” (NOVA Chemicals (International) S.A., priority 2002, published 2004).
Where two headings read alike, the source gives them in different places. Each block holds one molecule with its values, some of them ahead of it.

Experiments:
[1] = C5 hydrocarbon solubility in ionic liquid (volume change of hydrocarbon phase)
Experimental: The locations of all meniscuses were then recorded. […] The testing was conducted at ambient temperature.

[2] = ambient temperature; for Propane absorbed (mol C3H8/L absorbent) / Propylene absorbed (mol C3H6/L absorbent): equilibrium
Experimental: The testing apparatus consists of two sample cylinders (one 1000 cc cylinder and one 150 cc cylinder) connected by ⅛-inch tubing with valves allowing for isolation of each cylinder. A digital pressure gauge indicates the larger cylinder pressure and the pressure of the system when the cylinders are not isolated.
To measure absorption, 50 mL of bmim^+ BF4^− absorbent was loaded into the smaller cylinder and the larger cylinder was pressurized with the hydrocarbon gas. The amount of gas absorbed by the sample of bmim^+BF4^− is proportional to the pressure drop that occurs when the sample is exposed to the test gas, and can be calculated knowing the internal volume of the closed system.
The sample was then exposed to the gas in the large 1000 cc cylinder as the valve separating the cylinders was opened. The initial pressure drop was recorded. The sample was stirred via magnetic stirrer. When the system came to equilibrium (no pressure changed for over 1 hour) the final absorption pressure was recorded and the cylinders were once again separated. This procedure could be repeated for different absorption pressures. Experiments were conducted at ambient temperature.
Between experimental runs, the absorbent was degassed by bubbling a nitrogen entrainment gas through the absorbent for 2 to 3 hours.

[3] = Cyclo-C8 hydrocarbon solubility in ionic liquids
[4] = in bmim^+ BF4^− ionic liquid, ambient temperature

Compound: C=CC(=C)C [Isoprene, isoprene]
Selectivity over Isopentane [1, 4]: 18.0 | Solubility (mol C5/L ionic liquid) [1, 4]: 0.611 mol C5/L ionic liquid

C3H6:C3H8 Selectivity ([2]; 50.0 psig): 3.55 | Propane absorbed (mol C3H8/L absorbent) ([2]; 50.0 psig): 0.011 mol C3H8/L absorbent | Propylene absorbed (mol C3H6/L absorbent) ([2]; 50.0 psig): 0.039 mol C3H6/L absorbent | C3H6:C3H8 Selectivity ([2]; 72.6 psig): 9.92 | Propane absorbed (mol C3H8/L absorbent) ([2]; 72.6 psig): 0.012 mol C3H8/L absorbent | Propylene absorbed (mol C3H6/L absorbent) ([2]; 72.6 psig): 0.119 mol C3H6/L absorbent
Compound: CCCCn1cc[n+](C)c1.F[B-](F)(F)F [bmim^+ BF4^−, 1-butyl-3-methylimidazolium tetrafluoroborate]

Solubility (mol C5/L ionic liquid) [1]: 0.034 mol C5/L ionic liquid
Compound: CCC(C)C [Isopentane, isopentane]

Solubility in mbpy^+ BF4^− (mol C8/L ionic liquid) [3]: 0.551 mol C8/L ionic liquid
Compound: CCc1ccccc1 [Ethylbenzene, ethylbenzene]

Compound: CC=C(C)C [2-Methyl-2-Butene, 2-methyl-2-butene]
Selectivity over Isopentane [1, 4]: 10.6 | Solubility (mol C5/L ionic liquid) [1, 4]: 0.360 mol C5/L ionic liquid
